Experimental data: patent US20080021026A1, “BENZOTHIOPHENE INHIBITORS OF RHO KINASE” (priority 2006, published 2008)
Where two headings read alike, the source gives them in different places.

Key:
[1] = target: T1, recombinant N-terminal GST-tagged human Rho kinase 2 (ROCK2, amino acids 1-552) (Homo sapiens, UniProt O75116); test: In vitro Rho kinase assay (luciferase-based ATP consumption), ROCK2; type: biochemical
T1 construct: ROCK2, amino acids 1-552; purchased Invitrogen Inc. PV3759
Outline: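 Luciferase-based luminescence of leftover ATP after 2 h at 30 °C, where inhibition raises signal, reports activity of GST-tagged ROCK2 (aa 1-552) at 0.82 μg/ml. Conditions: S6 peptide 100 μg/ml, […], pH 7.5 Tris buffer. Results given as percent of H-1152P control activity.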

[2] = target: T2, recombinant N-terminal GST-tagged human Rho kinase 1 (ROCK1, amino acids 1-535) (Homo sapiens, UniProt Q13464); test: In vitro Rho kinase assay (luciferase-based ATP consumption), ROCK1; type: biochemical
T2 construct: ROCK1, amino acids 1-535; purchased Invitrogen Inc. PV-3691
T2 sequence (Q13464 1-535): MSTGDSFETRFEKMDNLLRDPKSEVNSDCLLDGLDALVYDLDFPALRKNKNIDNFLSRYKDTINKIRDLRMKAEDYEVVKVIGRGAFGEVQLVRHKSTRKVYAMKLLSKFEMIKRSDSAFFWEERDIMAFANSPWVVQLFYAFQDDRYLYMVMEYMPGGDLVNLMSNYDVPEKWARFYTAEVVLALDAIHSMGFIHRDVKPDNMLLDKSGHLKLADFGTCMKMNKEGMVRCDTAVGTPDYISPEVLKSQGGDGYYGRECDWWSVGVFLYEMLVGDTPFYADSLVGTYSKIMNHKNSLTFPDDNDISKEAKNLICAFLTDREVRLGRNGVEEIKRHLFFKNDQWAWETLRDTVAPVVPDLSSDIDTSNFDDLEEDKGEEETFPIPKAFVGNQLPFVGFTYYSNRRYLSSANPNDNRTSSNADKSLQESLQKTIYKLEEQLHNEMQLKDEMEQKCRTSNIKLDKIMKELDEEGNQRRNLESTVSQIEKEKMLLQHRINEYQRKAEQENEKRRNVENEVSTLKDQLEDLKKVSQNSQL
Outline: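 ATP depletion measured by firefly luciferase luminescence after 2 h at 30 °C, with inhibition raising signal and activity expressed relative to H-1152P. Reaction: 0.82 μg/ml recombinant GST-tagged ROCK1 (aa 1-535), S6 peptide 100 μg/ml, […], pH 7.5 Tris buffer.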

[3] = recombinant GST-tagged human ROCK2, luciferase-based ATP consumption, read-out: ROCK2 IC50
[4] = recombinant GST-tagged human ROCK1, luciferase-based ATP consumption, read-out: ROCK1 IC50
[5] = ROCK2 IC50, recombinant GST-tagged human ROCK2, luciferase-based ATP consumption
[6] = ROCK1 IC50, recombinant GST-tagged human ROCK1, luciferase-based ATP consumption

T1 sequence (O75116 1-552): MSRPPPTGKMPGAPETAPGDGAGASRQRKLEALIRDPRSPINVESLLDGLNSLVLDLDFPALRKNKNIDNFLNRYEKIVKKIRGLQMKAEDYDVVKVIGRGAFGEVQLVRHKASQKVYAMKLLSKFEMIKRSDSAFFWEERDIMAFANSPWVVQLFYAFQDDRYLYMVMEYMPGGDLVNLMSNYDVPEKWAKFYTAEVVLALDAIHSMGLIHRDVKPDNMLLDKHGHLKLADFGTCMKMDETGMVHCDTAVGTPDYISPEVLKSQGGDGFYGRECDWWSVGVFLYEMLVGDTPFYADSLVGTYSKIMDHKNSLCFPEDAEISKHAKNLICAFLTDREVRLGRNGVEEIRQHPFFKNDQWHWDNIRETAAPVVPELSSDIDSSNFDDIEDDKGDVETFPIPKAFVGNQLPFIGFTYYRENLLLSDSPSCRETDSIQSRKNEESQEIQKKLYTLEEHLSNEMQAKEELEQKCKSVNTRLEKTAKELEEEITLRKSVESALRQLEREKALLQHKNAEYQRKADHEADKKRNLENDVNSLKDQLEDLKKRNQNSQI

Structure (SMILES) | IC50 [1, 3] [µM] | IC50 [2, 4] [µM] | IC50 [1, 5] [µM] | IC50 [2, 6] [µM]
Cc1c(-c2ccnc(N)n2)sc2ccc(CNC(=O)c3ccc(F)cc3Cl)cc12 [Example 194, Cc1c(sc2ccc(CNC(═O)c3ccc(F)cc3Cl)cc12)-c4ccnc(N)n4] | – | – | < 5 | > 5
Cc1c(-c2ccnc(N)n2)sc2ccc(CNC(=O)c3c(F)cccc3Cl)cc12 [Example 195, Cc1c(sc2ccc(CNC(═O)c3c(F)cccc3Cl)cc12)-c4ccnc(N)n4] | – | – | < 5 | < 5
Cc1c(-c2ccnc(N)n2)sc2ccc(CNC(=O)CNC(=O)OC(C)(C)C)cc12 [Example 196, Cc1c(sc2ccc(CNC(═O)CNC(═O)OC(C)(C)C)cc12)-c3ccnc(N)n3] | < 5 | < 5 | – | –
Cc1c(C(=O)NCc2ccc3sc(-c4ccnc(N)n4)c(C)c3c2)oc2ccccc12 [Example 197, Cc1c(oc2ccccc12)C(═O)NCc3ccc4sc(c(C)c4c3)-c5ccnc(N)n5] | > 5 | < 5 | – | –
Cc1c(-c2ccnc(N)n2)sc2ccc(CNC(=O)CC3Cc4ccccc4C3)cc12 [Example 198, Cc1c(sc2ccc(CNC(═O)CC3Cc4ccccc4C3)cc12)-c5ccnc(N)n5] | < 5 | > 5 | – | –
Cc1c(-c2ccnc(N)n2)sc2ccc(CNC(=O)C3CCc4ccccc4C3)cc12 (stereo not drawn) [Example 199, Cc1c(sc2ccc(CNC(═O)C3CCc4ccccc4C3)cc12)-c5ccnc(N)n5] | < 5 | > 5 | – | –
COc1ccccc1C=CC(=O)NCc1ccc2sc(-c3ccnc(N)n3)c(C)c2c1 [Example 200, COc1ccccc1C═CC(═O)NCc2ccc3sc(c(C)c3c2)-c4ccnc(N)n4] | < 5 | < 5 | – | –
CCCCc1ccc(C(=O)NCc2ccc3sc(-c4ccnc(N)n4)c(C)c3c2)cc1 [Example 203, CCCCc1ccc(cc1)C(═O)NCc2ccc3sc(c(C)c3c2)-c4ccnc(N)n4] | > 5 | > 5 | – | –
Cc1c(-c2ccnc(N)n2)sc2ccc(CNC(=O)c3ccc(C(C)(C)C)cc3)cc12 [Example 204, Cc1c(sc2ccc(CNC(═O)c3ccc(cc3)C(C)(C)C)cc12)-c4ccnc(N)n4] | < 5 | < 5 | – | –
Cc1c(-c2ccnc(N)n2)sc2ccc(CNC(=O)c3ccc(N(C)C=O)cc3)cc12 [Example 205, CN(C═O)c1ccc(cc1)C(═O)NCc2ccc3sc(c(C)c3c2)-c4ccnc(N)n4] | < 5 | < 5 | – | –
Cc1c(-c2ccnc(N)n2)sc2ccc(CNC(=O)COc3ccccc3C=O)cc12 [Example 207, Cc1c(sc2ccc(CNC(═O)COc3ccccc3C═O)cc12)-c4ccnc(N)n4] | < 5 | < 5 | – | –
CC(=O)Oc1ccc(C(=O)NCc2ccc3sc(-c4ccnc(N)n4)c(C)c3c2)cc1 [Example 208, CC(═O)Oc1ccc(cc1)C(═O)NCc2ccc3sc(c(C)c3c2)-c4ccnc(N)n4] | < 5 | < 5 | – | –
COC(=O)c1ccc(C(=O)NCc2ccc3sc(-c4ccnc(N)n4)c(C)c3c2)cc1 [Example 209, COC(═O)c1ccc(cc1)C(═O)NCc2ccc3sc(c(C)c3c2)-c4ccnc(N)n4] | < 5 | < 5 | – | –
Cc1c(-c2ccnc(N)n2)sc2ccc(CNC(=O)Cc3ccc4c(c3)OCO4)cc12 [Example 212, Cc1c(sc2ccc(CNC(═O)Cc3ccc4OCOc4c3)cc12)-c5ccnc(N)n5] | < 5 | < 5 | – | –
CCCOc1ccc(C(=O)NCc2ccc3sc(-c4ccnc(N)n4)c(C)c3c2)cc1 [Example 213, CCCOc1ccc(cc1)C(═O)NCc2ccc3sc(c(C)c3c2)-c4ccnc(N)n4] | > 5 | < 5 | – | –
Cc1c(-c2ccnc(N)n2)sc2ccc(CNC(=O)c3ccc(OC(C)C)cc3)cc12 [Example 214, CC(C)Oc1ccc(cc1)C(═O)NCc2ccc3sc(c(C)c3c2)-c4ccnc(N)n4] | > 5 | > 5 | – | –
COc1cc(OC)cc(C(=O)NCc2ccc3sc(-c4ccnc(N)n4)c(C)c3c2)c1 [Example 221, COc1cc(OC)cc(c1)C(═O)NCc2ccc3sc(c(C)c3c2)-c4ccnc(N)n4] | < 5 | > 5 | – | –
Cc1ccc(SCC(=O)NCc2ccc3sc(-c4ccnc(N)n4)c(C)c3c2)cc1 [Example 223, Cc1ccc(SCC(═O)NCc2ccc3sc(c(C)c3c2)-c4ccnc(N)n4)cc1] | < 5 | > 5 | – | –
Cc1c(-c2ccnc(N)n2)sc2ccc(CNC(=O)C=Cc3ccccc3Cl)cc12 [Example 225, Cc1c(sc2ccc(CNC(═O)C═Cc3ccccc3Cl)cc12)-c4ccnc(N)n4] | – | – | < 5 | > 5

More lines, main results first:

IC50 [1, 3] [µM] | IC50 [2, 4] [µM] | Structure (SMILES) | IC50 [1, 5] [µM] | IC50 [2, 6] [µM]
< 5 | < 5 | Cc1c(-c2ccnc(N)n2)sc2ccc(CNC(=O)c3ccc(Cl)cc3O)cc12 [Example 190, Cc1c(sc2ccc(CNC(═O)c3ccc(Cl)cc3O)cc12)-c4ccnc(N)n4] | – | –
< 5 | > 5 | Cc1c(-c2ccnc(N)n2)sc2ccc(CNC(=O)c3cc(Cl)ccc3O)cc12 [Example 191, Cc1c(sc2ccc(CNC(═O)c3cc(Cl)ccc3O)cc12)-c4ccnc(N)n4] | – | –
< 5 | > 5 | Cc1c(-c2ccnc(N)n2)sc2ccc(CNC(=O)c3ccc4ncccc4c3)cc12 [Example 192, Cc1c(sc2ccc(CNC(═O)c3ccc4ncccc4c3)cc12)-c5ccnc(N)n5] | – | –
> 5 | < 5 | Cc1c(-c2ccnc(N)n2)sc2ccc(CNC(=O)c3cnc(O)c(Cl)c3)cc12 [Example 193, Cc1c(sc2ccc(CNC(═O)c3cnc(O)c(Cl)c3)cc12)-c4ccnc(N)n4] | – | –
< 5 | > 5 | Cc1c(-c2ccnc(N)n2)sc2ccc(CNC(=O)c3csc4ccccc34)cc12 [Example 201, Cc1c(sc2ccc(CNC(═O)c3csc4ccccc34)cc12)-c5ccnc(N)n5] | – | –
< 5 | < 5 | Cc1c(-c2ccnc(N)n2)sc2ccc(CNC(=O)c3cc4ccccc4s3)cc12 [Example 202, Cc1c(sc2ccc(CNC(═O)c3cc4ccccc4s3)cc12)-c5ccnc(N)n5] | – | –
< 5 | < 5 | CC(=O)Nc1cccc(C(=O)NCc2ccc3sc(-c4ccnc(N)n4)c(C)c3c2)c1 [Example 206, CC(═O)Nc1cccc(c1)C(═O)NCc2ccc3sc(c(C)c3c2)-c4ccnc(N)n4] | – | –
< 5 | < 5 | CC(=O)Oc1cccc(C(=O)NCc2ccc3sc(-c4ccnc(N)n4)c(C)c3c2)c1 [Example 210, CC(═O)Oc1cccc(c1)C(═O)NCc2ccc3sc(c(C)c3c2)-c4ccnc(N)n4] | – | –
< 5 | < 5 | CC(=O)Oc1ccccc1C(=O)NCc1ccc2sc(-c3ccnc(N)n3)c(C)c2c1 [Example 211, CC(═O)Oc1ccccc1C(═O)NCc2ccc3sc(c(C)c3c2)-c4ccnc(N)n4] | – | –
< 5 | > 5 | Cc1cccc([N+](=O)[O-])c1C(=O)NCc1ccc2sc(-c3ccnc(N)n3)c(C)c2c1 [Example 215, Cc1cccc(c1C(═O)NCc2ccc3sc(c(C)c3c2)-c4ccnc(N)n4)[N+]([O−])═O] | – | –
< 5 | > 5 | Cc1cccc(C(=O)NCc2ccc3sc(-c4ccnc(N)n4)c(C)c3c2)c1[N+](=O)[O-] [Example 216, Cc1cccc(C(═O)NCc2ccc3sc(c(C)c3c2)-c4ccnc(N)n4)c1[N+]([O−])═O] | – | –
< 5 | > 5 | Cc1ccc([N+](=O)[O-])c(C(=O)NCc2ccc3sc(-c4ccnc(N)n4)c(C)c3c2)c1 [Example 217, Cc1ccc(c(c1)C(═O)NCc2ccc3sc(c(C)c3c2)-c4ccnc(N)n4)[N+]([O−])═O] | – | –
< 5 | > 5 | Cc1c(C(=O)NCc2ccc3sc(-c4ccnc(N)n4)c(C)c3c2)cccc1[N+](=O)[O-] [Example 218, Cc1c(cccc1[N+]([O−])═O)C(═O)NCc2ccc3sc(c(C)c3c2)-c4ccnc(N)n4] | – | –
< 5 | > 5 | COc1ccc(C(=O)NCc2ccc3sc(-c4ccnc(N)n4)c(C)c3c2)c(OC)c1 [Example 219, COc1ccc(C(═O)NCc2ccc3sc(c(C)c3c2)-c4ccnc(N)n4)c(OC)c1] | – | –
< 5 | > 5 | COc1cccc(OC)c1C(=O)NCc1ccc2sc(-c3ccnc(N)n3)c(C)c2c1 [Example 220, COc1cccc(OC)c1C(═O)NCc2ccc3sc(c(C)c3c2)-c4ccnc(N)n4] | – | –
< 5 | > 5 | COc1cccc(C(=O)NCc2ccc3sc(-c4ccnc(N)n4)c(C)c3c2)c1OC [Example 222, COc1cccc(C(═O)NCc2ccc3sc(c(C)c3c2)-c4ccnc(N)n4)c1OC] | – | –
< 5 | > 5 | Cc1c(-c2ccnc(N)n2)sc2ccc(CNC(=O)C=Cc3ccc(Cl)cc3)cc12 [Example 224, Cc1c(sc2ccc(CNC(═O)C═Cc3ccc(Cl)cc3)cc12)-c4ccnc(N)n4] | – | –
< 5 | > 5 | Cc1c(-c2ccnc(N)n2)sc2ccc(CNC(=O)c3ccc([N+](=O)[O-])c(O)c3)cc12 [Example 226, Cc1c(sc2ccc(CNC(═O)c3ccc(c(O)c3)[N+]([O−])═O)cc12)-c4ccnc(N)n4] | – | –
< 5 | > 5 | Cc1c(-c2ccnc(N)n2)sc2ccc(CNC(=O)c3cc(O)ccc3[N+](=O)[O-])cc12 [Example 227, Cc1c(sc2ccc(CNC(═O)c3cc(O)ccc3[N+]([O−])═O)cc12)-c4ccnc(N)n4] | – | –
< 5 | > 5 | Cc1c(-c2ccnc(N)n2)sc2ccc(CNC(=O)c3cc([N+](=O)[O-])ccc3O)cc12 [Example 228, Cc1c(sc2ccc(CNC(═O)c3cc(ccc3O)[N+]([O−])═O)cc12)-c4ccnc(N)n4] | – | –
